Values after ≈ are worked out from the molar mass of the structure shown.
Experiments:
[1] = test system: Schizosaccharomyces pombe; assay: MIC serial dilution assay; assay type: cell-based; conditions: Schizosaccharomyces pombe DSM70572; overnight, 30 °C; reference nystatin 1 mg/mL; read-out: Minimum Inhibitory Concentration (MIC)
Protocol: (§1) Compounds 1, 2, 4 and 5 were dissolved in MeOH (1 mg/mL) for the antimicrobial activity assay, while compound 3 was dissolved in MeOH: DMSO 9+1 (1 mg/mL). The solvents were also used as negative controls.
(§2) Minimum inhibitory concentrations (MIC) were determined in a serial dilution assay, as described previously; a detailed protocol can be found in the Supporting Information. The compounds (1 mg/mL) were diluted to a range of 66.7 to 0.52 µg/mL and incubated with the test organisms overnight. Inhibition of growth was visually evaluated the next day: the MIC is defined as the lowest concentration of the test compound where no growth of the test organism was observed. Various test organisms of fungal and bacterial origin were tested to cover a broad range of microorganisms. This selection is also being used as a standard test panel in our attempts to discover new anti-infectives, as it represents a broad spectrum of pathogens of clinical interest, as well as sensitive indicator strains (bacteria: Bacillus subtilis, Staphylococcus aureus, Micrococcus luteus, Chromobacterium violaceum, Escherichia coli and Pseudomonas aeruginosa; mycobacteria: Mycolicibacterium smegmatis and fungi: Candida albicans, Schizosaccharomyces pombe, Mucor hiemalis, Pichia anomala and Rhodotorula glutinis).
(§3) Protocol: Antimicrobial Activi ty Assay
(§4) The assay was conducted as a minimum inhi bitory concentration (MIC) assay in 96-well ro und-bottom mi crotiter pl ate s usi ng the p ar ameter s su mm ari zed i n T a bl e S 1 and as already described i n [S1].
(§5) Stocks of the test organi sms were generated by growing the organisms o ver ni ght i n 50 mL shaki ng fl asks fi ll ed wi th 25 mL of the growth medi um at 140 rpm (for media and temperatures see Table S1). If the organisms were well grown the ne xt day, which was checked by occurrence of an optical density (OD)>30 of the suspension (OD600 nm for bacteria, OD548 nm for fungi and M. smegma tis) , aliquots of these were stored i n 1.5 mL reaction tube s in a freezer at −80 °C for up to 12 mo nths . Upon use, aliquots were unth awed and the OD of the suspension measured and adjusted by diluting with the respective growth medi um. OD600 nm w as adj usted to 0.01 and OD548 nm to 0.1.
(§6) Subse que ntly, 150 µL o f the adjusted suspensions were added to all wells of a 96-wel l microtiter pl ate (one test organi sm per plate). In row A, additional 130 µL of suspensions plus 20 µL of the test compounds (1 mg/mL) and the controls (one compound/column) were added. MeOH as well as MeOH:DMSO 9+1 were used as negative controls, while different positive controls (refer ences) were used for the test organisms (see Tabl e S1). Then, starti ng from row A, 150 µ L of the suspension were transferred to the next row, the contents thoroughly mixed, and 150 µ L transferred to the following row.
(§7) The remaining 150 µ L after row H were discarded. […]
(§8) compounds, ranging from 66.7 µg/mL i n row A to 0.52 µg/mL i n row H.
(§9) The microtiter plates were then incubated overnight o n a microplate shaker at 800 rpm at 30 or 37 °C (see Table S1) and were visually evaluated the next day. The MIC is defined as the lowest concentration were no growth of the test organism was o bserved. A lower MIC thus corresponds to a higher antimicrobial activity of the test compound.
(§10) Table S1: MIC assay ex per i men t parameters test organism strain No. growth incubation positive control (reference) […]
Schizosaccharomyces DSM70572 MYC 3 30 nyst ati n 1.0 mg/mL […]
(§11) Rhodotorula glutinis DSM10134 MYC 3 30 nyst ati n 1.0 mg/mL
(§12) 1 MHB: Müller-Hinton Broth (SN X927.1, Ca r l Roth GmbH, Karlsruhe, Germany) 2 7H9+ADC: Middlebrook 7H9 Broth Base + Middlebrook ADC Growth Supplement (SN M0678+M0553, Merck, Darmstadt, Germany)
(§13) 3 MYC: 1 % w/v, bacto peptone, 1% w/v yeast extract, 2 % w /v glycerol, pH 6.3 [S1] Helaly, S.E.; Ashrafi, S.; Teponno, R.B.; Bernecker, S.; Dababat, A.A.; Maier, W.; Stadler, M.
(§14) Nematicidal Cyclic Lipodepsipeptides and a Xanthocillin Derivative from a Phaeosphariaceous […]

Mucor hiemalis = assay: MIC serial dilution assay; assay type: cell-based; conditions: Mucor hiemalis DSM2656; overnight, 30 °C; reference nystatin 1 mg/mL; read-out: Minimum Inhibitory Concentration (MIC)
Protocol: as §1, §2, §3, §4, §5, §6, §7, §8, §9, §10
Mucor hiemalis DSM2656 MYC 3 30 nyst ati n 1.0 mg/mL […]
as §11, §12, §13, §14

MIC [1]	MIC (Mucor hiemalis)	SMILES
66.7 µg/mL (≈ 222 µM)	66.7 µg/mL (≈ 222 µM)	Oc1cccc2c3c(ccc12)-c1ccc(O)c2c(O)ccc-3c12 [Compound 1, viridistratin A]
33.3 µg/mL (≈ 106 µM)	4.2 µg/mL (≈ 13.4 µM)	COc1cccc2c3c(ccc12)-c1ccc(O)c2c(O)ccc-3c12 [Compound 2, viridistratin B]
> 66.7 µg/mL	> 66.7 µg/mL	COc1cccc2c3c(ccc12)-c1ccc(O)c2c(OC)ccc-3c12 [Compound 3, viridistratin C]
> 66.7 µg/mL	66.7 µg/mL (≈ 201 µM)	O=C1CCC(=O)c2c1c(O)cc1c2-c2ccc(O)c3c(O)ccc-1c23 [Compound 5, truncatone C]

SMILES	MIC [1]	MIC (Mucor hiemalis)
O=C1C[C@H]2C(=C3CCC(=O)c4c(O)ccc2c43)c2cccc(O)c21 [Compound 4, truncatone A]	> 66.7 µg/mL	> 66.7 µg/mL

From paper PMC7277860, “Viridistratins A−C, Antimicrobial and Cytotoxic Benzo[j]fluoranthenes from Stromata of Annulohypoxylon viridistratum (Hypoxylaceae, Ascomycota)” (Biomolecules, 2020)
